Values after ≈ are worked out from the molar mass of the structure shown.
Legend:
[1] = test system: Bacillus anthracis; assay: Antimicrobial activity against Bacillus anthracis Sterne by CLSI method; format: functional
[2] = Cytotoxicity against human HeLa cells by MTS assay; format: cell-based; settings: HeLa cells
[3] = test system: Enterococcus faecalis; assay: Antimicrobial activity against vancomycin-resistant Enterococcus faecalis ATCC 51575 by CLSI method; format: functional; settings: Enterococcus faecalis, ATCC 51575; read-out: MIC
[4] = test system: Pseudomonas aeruginosa; assay: Antimicrobial activity against mexAB-oprM deficient Pseudomonas aeruginosa PAO1 harboring by CLSI method; format: functional
[5] = test system: Staphylococcus aureus; assay: Antimicrobial activity against methicillin-resistant Staphylococcus aureus 1094 by CLSI method; format: functional; settings: Staphylococcus aureus, 1094; read-out: MIC
[6] = test system: Klebsiella pneumoniae; assay: Antimicrobial activity against Klebsiella pneumoniae 13882 by CLSI method; format: functional; settings: Klebsiella pneumoniae, 13882; read-out: MIC
[7] = test system: Escherichia coli; assay: Antimicrobial activity against TolC-deficient Escherichia coli by CLSI method; format: functional
[8] = test system: Bacillus subtilis; assay: Antimicrobial activity against Bacillus subtilis BD54 by CLSI method; format: functional; settings: Bacillus subtilis, BD54; read-out: MIC
[9] = test system: Escherichia coli; assay: Antimicrobial activity against TolC+ Escherichia coli 700 by CLSI method; format: functional; settings: Escherichia coli, 700; read-out: MIC
[10] = test system: Pseudomonas aeruginosa; assay: Antimicrobial activity against Pseudomonas aeruginosa PAO1 by CLSI method; format: functional; settings: Pseudomonas aeruginosa, PAO1; read-out: MIC
[11] = Bacillus anthracis, Sterne, read-out: MIC
[12] = Escherichia coli, read-out: MIC

SMILES	MIC [1, 11] [µg/mL]	CC50 [2] [µg/mL]	MIC [3] [µg/mL]	MIC [4] [µg/mL]	MIC [5] [µg/mL]	MIC [6] [µg/mL]	MIC [7, 12] [µg/mL]	MIC [8] [µg/mL]	MIC [9] [µg/mL]	MIC [10] [µg/mL]	MIC [1] [µg/mL]	MIC [7] [µg/mL]
c1cc2cc(-c3ccc(-c4nc5ccc(C6=NCCCN6)cc5[nH]4)cc3)[nH]c2cc1C1=NCCCN1	0.31 (≈ 0.655 µM)	27.6 (≈ 58.3 µM)	0.31 (≈ 0.655 µM)	2.5 (≈ 5.28 µM)	0.31 (≈ 0.655 µM)	5 (≈ 10.6 µM)	0.31 (≈ 0.655 µM)	0.08 (≈ 0.169 µM)	2.5 (≈ 5.28 µM)	2.5 (≈ 5.28 µM)		
c1cc2cc(-c3ccc(-c4cn5cc(C6=NCCN6)ccc5n4)cc3)[nH]c2cc1C1=NCCN1	40 (≈ 89.8 µM)		20 (≈ 44.9 µM)		80 (≈ 180 µM)	80 (≈ 180 µM)	0.63 (≈ 1.41 µM)	0.31 (≈ 0.696 µM)	40 (≈ 89.8 µM)	> 80		
c1cc2cc(-c3ccc(-c4cn5ccc(C6=NCCN6)cc5n4)cc3)[nH]c2cc1C1=NCCN1	> 80	2.5 (≈ 5.61 µM)	> 80	> 80	> 80	5 (≈ 11.2 µM)	0.31 (≈ 0.696 µM)	2.5 (≈ 5.61 µM)	2.5 (≈ 5.61 µM)	40 (≈ 89.8 µM)		
c1cc2cc(-c3ccc(-c4cc5ccc(C6=NCCCN6)cc5s4)cc3)[nH]c2cc1C1=NCCCN1	0.16 (≈ 0.327 µM)	5.9 (≈ 12 µM)	0.31 (≈ 0.633 µM)	10 (≈ 20.4 µM)	0.31 (≈ 0.633 µM)	1.25 (≈ 2.55 µM)	0.31 (≈ 0.633 µM)	0.1 (≈ 0.204 µM)	0.63 (≈ 1.29 µM)	10 (≈ 20.4 µM)		
c1cc2oc(-c3ccc(-c4cc5ccc(C6=NCCCN6)cc5[nH]4)cc3)cc2cc1C1=NCCCN1	0.08 (≈ 0.169 µM)	8.5 (≈ 17.9 µM)	0.08 (≈ 0.169 µM)	2.5 (≈ 5.28 µM)	0.31 (≈ 0.655 µM)	1.25 (≈ 2.64 µM)	0.39 (≈ 0.824 µM)	0.08 (≈ 0.169 µM)	0.63 (≈ 1.33 µM)	2.5 (≈ 5.28 µM)		
c1cc2cc(-c3ccc(-c4cc5ccc(C6=NCCN6)cc5o4)cc3)[nH]c2cc1C1=NCCN1	0.31 (≈ 0.696 µM)	9.7 (≈ 21.8 µM)	0.16 (≈ 0.359 µM)	15 (≈ 33.7 µM)	0.16 (≈ 0.359 µM)	0.94 (≈ 2.11 µM)	0.24 (≈ 0.539 µM)	0.16 (≈ 0.359 µM)	0.47 (≈ 1.05 µM)	10 (≈ 22.4 µM)		
c1cc2cc(-c3ccc(-c4cc5ccc(C6=NCCCN6)cc5o4)cc3)[nH]c2cc1C1=NCCCN1	5 (≈ 10.6 µM)	26 (≈ 54.9 µM)	0.39 (≈ 0.824 µM)	0.47 (≈ 0.992 µM)	0.1 (≈ 0.211 µM)	0.55 (≈ 1.16 µM)	0.16 (≈ 0.338 µM)	0.14 (≈ 0.296 µM)	0.63 (≈ 1.33 µM)	0.63 (≈ 1.33 µM)		
OC1CN=C(c2ccc3cc(-c4ccc(-c5cc6ccc(C7=NCC(O)CN7)cc6o5)cc4)[nH]c3c2)NC1 (configuration not stated)	0.55 (≈ 1.09 µM)	11.9 (≈ 23.5 µM)	0.31 (≈ 0.613 µM)	15 (≈ 29.7 µM)	0.31 (≈ 0.613 µM)	1.09 (≈ 2.16 µM)	0.16 (≈ 0.316 µM)	0.08 (≈ 0.158 µM)	2.5 (≈ 4.94 µM)	6.3 (≈ 12.5 µM)		
COC1CN=C(c2ccc3cc(-c4ccc(-c5cc6ccc(C7=NCC(OC)CN7)cc6o5)cc4)[nH]c3c2)NC1 (configuration not stated)	0.31 (≈ 0.581 µM)	6 (≈ 11.2 µM)	0.63 (≈ 1.18 µM)		0.31 (≈ 0.581 µM)	1.25 (≈ 2.34 µM)	0.24 (≈ 0.45 µM)	0.08 (≈ 0.15 µM)	2.5 (≈ 4.68 µM)	> 80		
FC1CN=C(c2ccc3cc(-c4ccc(-c5cc6ccc(C7=NCC(F)CN7)cc6o5)cc4)[nH]c3c2)NC1 (configuration not stated)	0.31 (≈ 0.608 µM)	47.5 (≈ 93.2 µM)	0.31 (≈ 0.608 µM)	2.5 (≈ 4.91 µM)	0.31 (≈ 0.608 µM)	0.63 (≈ 1.24 µM)	0.27 (≈ 0.53 µM)	0.16 (≈ 0.314 µM)	1.25 (≈ 2.45 µM)	5 (≈ 9.81 µM)		
c1cc2cc(-c3ccc(-c4cnc(N5CCOCC5)nc4)cc3)[nH]c2cc1C1=NCCCN1	0.55 (≈ 1.25 µM)	2 (≈ 4.56 µM)	3.75 (≈ 8.55 µM)		7.5 (≈ 17.1 µM)	70 (≈ 160 µM)	0.63 (≈ 1.44 µM)	0.78 (≈ 1.78 µM)	35 (≈ 79.8 µM)	> 80		
CC1CNC(c2ccc3cc(-c4ccc(-c5cnc(N6CCOCC6)nc5)cc4)[nH]c3c2)=N1 (configuration not stated)	22.5 (≈ 51.3 µM)	1.3 (≈ 2.96 µM)	> 80		> 80	> 80	60 (≈ 137 µM)	10 (≈ 22.8 µM)	> 80	> 80		
c1cc2cc(-c3ccc(-c4cnc(N5CCCC5)nc4)cc3)[nH]c2cc1C1=NCCCN1	0.63 (≈ 1.49 µM)	5.7 (≈ 13.5 µM)	5 (≈ 11.8 µM)		2.5 (≈ 5.92 µM)	> 80	0.63 (≈ 1.49 µM)	0.63 (≈ 1.49 µM)	> 80	> 80		
CC1CNC(c2ccc3cc(-c4ccc(-c5cnc(N6CCCC6)nc5)cc4)[nH]c3c2)=N1 (configuration not stated)	40 (≈ 94.7 µM)	1.1 (≈ 2.6 µM)	> 80		40 (≈ 94.7 µM)	> 80	40 (≈ 94.7 µM)	40 (≈ 94.7 µM)	> 80	> 80		
Fc1cc(-c2cc3ccc(C4=NCCCN4)cc3[nH]2)ccc1-c1cc2ccc(C3=NCCCN3)cc2o1	0.08 (≈ 0.163 µM)	14.3 (≈ 29.1 µM)	0.16 (≈ 0.325 µM)		0.16 (≈ 0.325 µM)	0.63 (≈ 1.28 µM)	0.31 (≈ 0.631 µM)	0.08 (≈ 0.163 µM)	0.63 (≈ 1.28 µM)	2.5 (≈ 5.09 µM)		
NCCCNc1cc(-c2cc3ccc(C4=NCCCN4)cc3[nH]2)ccc1-c1cc2ccc(C3=NCCCN3)cc2o1	0.63 (≈ 1.15 µM)	4.6 (≈ 8.43 µM)	1.25 (≈ 2.29 µM)		0.63 (≈ 1.15 µM)	1.25 (≈ 2.29 µM)	0.63 (≈ 1.15 µM)	0.24 (≈ 0.44 µM)	2.5 (≈ 4.58 µM)	2.5 (≈ 4.58 µM)		
c1cc2cc(-c3ccc(-c4cc5ccc(C6=NCCN6)cc5o4)s3)[nH]c2cc1C1=NCCN1	1.09 (≈ 2.41 µM)	182 (≈ 403 µM)	1.56 (≈ 3.45 µM)		0.94 (≈ 2.08 µM)	60 (≈ 133 µM)	0.27 (≈ 0.598 µM)	0.16 (≈ 0.354 µM)	2.8 (≈ 6.2 µM)	66.7 (≈ 148 µM)		
CC1CNC(c2ccc3cc(-c4ccc(-c5cc6ccc(C7=NC(C)CN7)cc6o5)s4)[nH]c3c2)=N1 (configuration not stated)	0.52 (≈ 1.08 µM)	14.5 (≈ 30.2 µM)	0.63 (≈ 1.31 µM)		1.04 (≈ 2.17 µM)	20 (≈ 41.7 µM)	0.63 (≈ 1.31 µM)	0.31 (≈ 0.646 µM)	1.25 (≈ 2.61 µM)	26.7 (≈ 55.7 µM)		
c1cc2cc(-c3ccc(-c4cc5ccc(C6=NCCCN6)cc5o4)s3)[nH]c2cc1C1=NCCCN1	0.16 (≈ 0.334 µM)	8.7 (≈ 18.1 µM)	0.31 (≈ 0.646 µM)		0.31 (≈ 0.646 µM)	2.5 (≈ 5.21 µM)	0.31 (≈ 0.646 µM)	0.08 (≈ 0.167 µM)	0.63 (≈ 1.31 µM)	10 (≈ 20.9 µM)		
OC1CN=C(c2ccc3cc(-c4ccc(-c5cc6ccc(C7=NCC(O)CN7)cc6o5)s4)[nH]c3c2)NC1 (configuration not stated)	1.25 (≈ 2.44 µM)	12.7 (≈ 24.8 µM)	2.5 (≈ 4.89 µM)		1.88 (≈ 3.67 µM)	15 (≈ 29.3 µM)	0.47 (≈ 0.919 µM)	0.43 (≈ 0.84 µM)	5 (≈ 9.77 µM)	40 (≈ 78.2 µM)		
FC1CN=C(c2ccc3cc(-c4ccc(-c5cc6ccc(C7=NCC(F)CN7)cc6o5)s4)[nH]c3c2)NC1 (configuration not stated)	0.31 (≈ 0.601 µM)	22.5 (≈ 43.6 µM)	0.63 (≈ 1.22 µM)		0.63 (≈ 1.22 µM)	2.5 (≈ 4.85 µM)	0.31 (≈ 0.601 µM)	0.16 (≈ 0.31 µM)	1.25 (≈ 2.42 µM)	53.3 (≈ 103 µM)		
CC1CN=C(c2ccc3cc(-c4ccc(-c5cc6ccc(C7=NCC(C)CN7)cc6o5)cn4)[nH]c3c2)NC1 (configuration not stated)	0.63 (≈ 1.25 µM)	2.2 (≈ 4.38 µM)	0.63 (≈ 1.25 µM)		0.31 (≈ 0.617 µM)	2.5 (≈ 4.97 µM)	0.27 (≈ 0.537 µM)	0.08 (≈ 0.159 µM)	1.88 (≈ 3.74 µM)	5 (≈ 9.95 µM)		
OC1CN=C(c2ccc3cc(-c4ccc(-c5cc6ccc(C7=NCC(O)CN7)cc6o5)cn4)[nH]c3c2)NC1 (configuration not stated)	1.09 (≈ 2.15 µM)	16.7 (≈ 33 µM)	5 (≈ 9.87 µM)		2.5 (≈ 4.94 µM)	8.8 (≈ 17.4 µM)	0.63 (≈ 1.24 µM)	3.75 (≈ 7.4 µM)	80 (≈ 158 µM)	25 (≈ 49.4 µM)		
FC1CN=C(c2ccc3cc(-c4ccc(-c5cc6ccc(C7=NCC(F)CN7)cc6o5)cn4)[nH]c3c2)NC1 (configuration not stated)	0.63 (≈ 1.23 µM)	19.6 (≈ 38.4 µM)	0.63 (≈ 1.23 µM)		0.83 (≈ 1.63 µM)	2.5 (≈ 4.9 µM)	0.31 (≈ 0.607 µM)	0.16 (≈ 0.313 µM)	8.3 (≈ 16.3 µM)	8.3 (≈ 16.3 µM)		
Cc1c(-c2ccc(-c3cc4ccc(C5=NCCCN5)cc4o3)cc2)[nH]c2cc(C3=NCCCN3)ccc12	0.08 (≈ 0.164 µM)	1.5 (≈ 3.08 µM)	0.16 (≈ 0.328 µM)		0.16 (≈ 0.328 µM)	0.31 (≈ 0.636 µM)	0.31 (≈ 0.636 µM)	0.08 (≈ 0.164 µM)	0.31 (≈ 0.636 µM)	1.25 (≈ 2.56 µM)		
Cc1c(-c2ccc(-c3cc4ccc(C5=NCCCN5)cc4o3)cc2)[nH]c2cccc(C#N)c12	2.5 (≈ 5.81 µM)		5 (≈ 11.6 µM)		5 (≈ 11.6 µM)	20 (≈ 46.5 µM)	10 (≈ 23.2 µM)	2.5 (≈ 5.81 µM)	20 (≈ 46.5 µM)	40 (≈ 92.9 µM)		
CC1CNC(c2ccc3cc(-c4ccc(-c5ccc(N(C)C)cc5)cc4)[nH]c3c2)=N1 (configuration not stated)	2.1 (≈ 5.32 µM)	≤ 0.63	3.3 (≈ 8.36 µM)		1.04 (≈ 2.64 µM)	> 80	> 80	0.63 (≈ 1.6 µM)	> 80	> 80		
CN(C)c1ccc(-c2ccc(-c3cc4ccc(C5=NCCCN5)cc4[nH]3)cc2)cc1	0.47 (≈ 1.19 µM)	≤ 0.63	3.1 (≈ 7.86 µM)		1.09 (≈ 2.76 µM)	> 80	> 80	0.63 (≈ 1.6 µM)	> 80	> 80		
CC1CNC(c2ccc3cc(-c4ccc(-c5cc6ccc(C7=NC(C)CN7)cc6o5)cc4)[nH]c3c2)=N1 (stereo in doubt)		5.7 (≈ 12 µM)	0.39 (≈ 0.824 µM)		0.31 (≈ 0.655 µM)	2.5 (≈ 5.28 µM)		0.2 (≈ 0.422 µM)	0.63 (≈ 1.33 µM)	60 (≈ 127 µM)	0.31 (≈ 0.655 µM)	0.63 (≈ 1.33 µM)
